Measured values taken from PMC8355244, “A fragment-based approach identifies an allosteric pocket that impacts malate dehydrogenase activity” (Communications Biology, 2021).
“And” between values parts separate entries of the source, which are not always exact repeats. Equal values may be shown once. Read-outs that look alike come from different tables or passages of the source.

Tests used:
[1] = 3 h exposure to 5 μM; cited from earlier work
MDH = conditions: cited from earlier work
V190W PfMDH = target: T1, V190W PfMDH (Plasmodium falciparum, UniProt Q6VVP7, V190W); assay: STD-NMR fragment screening, dimeric mutant; type: binding; conditions: 10 μM protein, 1 mM fragment
T1 construct: made in house; host or cells: E. coli (stated expressly only for the WT construct)
Protocol: (§1) NMR spectra were acquired on Bruker Avance III (600 MHz) spectrometer at 300 K, equipped with a triple resonance cryoprobe head and an automated SampleJet sample changer. The samples for STD experiments were prepared in 100 mM Na-phosphate pH 7.4, 400 mM NaCl and spectra were recorded in water with 1:100-fold excess of the fragment (dissolved in DMSO at 100 mM) in an additional 10% (v/v) D2O to provide a lock signal. Final protein and ligand concentrations were 10 μM and 1 mM, respectively. Selective saturation of the protein resonances (on resonance spectrum) was performed by irradiating at 0.5 ppm using a series of Eburp2.1000-shaped 90 pulses (50 ms, 1 ms delay between pulses) for a total saturation time of 2.0 s. For the reference spectrum (off-resonance), the samples were irradiated at −10 ppm. On- and off-resonance scans were subtracted using phase cycling. The fragment library screening was performed by testing 300 mixtures containing five fragments each initially. Mixtures that yielded positive STD signals were selected and deconvolved, i.e., fragments that formed “active” mixtures were tested separately. Spectra were analyzed with TopSpin® software, 4.0

WT PfMDH [2] = target: T2, WT PfMDH (Plasmodium falciparum, UniProt Q6VVP7); assay: Microscale thermophoresis (MST) binding to fluorescently labeled PfMDH
T2 construct: The full-length WT PfMDH gene was cloned into pETM-13; made in house; host or cells: E. coli Rosetta 2 (DE3) pLysS
Protocol: A Nanotemper MonolithNT.115 instrument (Nano-temper Technologies, GmbH) was used to quantify ligand/protein interactions. Purified PfMDH was labeled using the Red-NHS Monolith Protein Labeling Kit according to the manufacturer’s protocol. All reactions were performed in 100 mM Na-phosphate buffer pH 7.4, 400 mM NaCl, 0.05% Tween-20 in standard capillaries (Nanotemper Technologies GmbH). The ligand was 2× fold diluted starting from 4 mM as the highest concentration; the final protein concentration was 50 nM. All samples were incubated with compounds for about 1 h at room temperature followed by centrifugation at 18,000 rpm (Eppendorf Centrifuge 5415R) before loading into capillaries. Measurement was performed in triplicate at 40% LED intensity and 40% MST power. The Kd model was employed to determine the binding constant using the software MO.Affinity Analysis v2.3 while data collection was performed with MO.Control 2 (Nano-temper Technologies, GmbH).

WT PfMDH [3] = target: T2, WT PfMDH; assay: STD-NMR fragment screening, wild type; type: binding; conditions: 10 μM protein, 100-fold molar excess
Protocol: as §1

PfMDH [4] = target: T3, PfMDH (Plasmodium falciparum, UniProt Q6VVP7); assay: Kinetics experiment with varying L-malate, substrate inhibition model; type: biochemical
T3 construct: The full-length WT PfMDH gene was cloned into pETM-13; made in house; host or cells: E. coli Rosetta 2 (DE3) pLysS

PfMDH [5] = target: T3, PfMDH; assay: Thermal shift assay (TSA); type: binding; conditions: for TSA melting curve raw signal: triplicate columns; for TSA melting curve raw fluorescence signal: three replicate columns
Protocol: The TSA experiment was conducted in a BioRad CSX 96 (Biorad). Each reaction consisted of 1 mM of compound (100 mM stock in 100% (v/v) DMSO) and 10 μM PfMDH in 100 mM Na–phosphate buffer pH 7.4, 400 mM NaCl, and 10× Sypro Orange (Invitrogen) for a total volume of 100 μl. Control experiments were performed with 1% (v/v) DMSO. Inflection points were determined using BioRad CFX96™ control software. Generally, a temperature increase of over 1 °C is interpreted as a result of the stabilization of the protein-ligand interaction. On the contrary, a negative shift is considered a destabilization caused by the fragment.

T2 sequence (Q6VVP7 entry or part of it): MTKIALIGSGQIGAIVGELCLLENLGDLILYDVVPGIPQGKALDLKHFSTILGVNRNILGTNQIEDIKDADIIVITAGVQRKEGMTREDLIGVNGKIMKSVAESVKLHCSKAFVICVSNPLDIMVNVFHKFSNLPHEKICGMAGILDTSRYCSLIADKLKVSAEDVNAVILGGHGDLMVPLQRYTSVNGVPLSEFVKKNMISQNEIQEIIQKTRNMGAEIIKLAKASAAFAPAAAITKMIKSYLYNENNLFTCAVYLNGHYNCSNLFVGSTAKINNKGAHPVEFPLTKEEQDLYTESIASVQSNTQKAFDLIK
T3 sequence (Q6VVP7 entry or part of it): as above
T1 sequence (Q6VVP7 whole entry V190W, the tested form may be a part): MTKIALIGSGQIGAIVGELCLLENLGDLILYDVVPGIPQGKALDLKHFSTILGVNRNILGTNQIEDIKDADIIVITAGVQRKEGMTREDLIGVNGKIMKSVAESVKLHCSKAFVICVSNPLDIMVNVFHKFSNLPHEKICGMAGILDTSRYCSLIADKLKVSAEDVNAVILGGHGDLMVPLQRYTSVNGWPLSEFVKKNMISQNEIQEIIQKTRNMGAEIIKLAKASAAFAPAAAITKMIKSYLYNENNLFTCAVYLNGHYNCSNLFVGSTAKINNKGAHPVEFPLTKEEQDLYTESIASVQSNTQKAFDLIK

Compound: O=C1NCc2c1c1c3ccccc3[nH]c1c1[nH]c3ccccc3c21 [staurosporine aglycone]
- decrease in cell viability [1]: 80%
- IC50 (MDH): 8 µM

Compound: Nc1nc(-c2ccc(F)c(F)c2)cs1 [4DT, 4-(3,4-difluorophenyl) thiazol-2-amine]
- STD-NMR binding (V190W PfMDH): binds to dimeric V190W PfMDH
- Kd (WT PfMDH [2]; MST report, target 50 nM, 25.1°C, n 3, Kd Confidence ± 1.7444E-05, read-out: Kd (MST report)): 99 µM
- Kd (WT PfMDH [2]; MST, 50 nM labeled WT PfMDH, ligand 240 nM to 4 mM, read-out: Kd): 99 ± 1.7 µM
- STD-NMR binding (WT PfMDH [3]): could not be seen to bind
- Ki (substrate inhibition constant of malate) (PfMDH [4]; in the presence of 63 μM compound, control 12.5 ± 4.2): 63000 ± 31800 µM
- Ki (substrate inhibition constant of malate) (PfMDH [4]; in the presence of 125 μM compound): 72900 ± 41900 µM
- ΔTm at 1000 µM (PfMDH [5]; 1 mM compound vs DMSO control): -2 ± 0.17 °C
- Tm (PfMDH [5]; 1 mM compound, 10 μM PfMDH, DMSO control Tm 58): 56 ± 0.17 °C
- TSA melting curve raw signal (PfMDH [5]; Temperature 25): 3306.061 and 3342.86 and 3324.801
- TSA melting curve raw signal (PfMDH [5]; Temperature 28.5): 3333.659 and 3382.548 and 3355.546
- TSA melting curve raw signal (PfMDH [5]; Temperature 29): 3336.65 and 3387.196 and 3360.105
- TSA melting curve raw signal (PfMDH [5]; Temperature 29.5): 3339.189 and 3391.098 and 3364.015
- TSA melting curve raw signal (PfMDH [5]; Temperature 30): 3341.416 and 3393.698 and 3368
- TSA melting curve raw signal (PfMDH [5]; Temperature 30.5): 3342.684 and 3395.106 and 3371.797
- TSA melting curve raw signal (PfMDH [5]; Temperature 31): 3343.918 and 3395.986 and 3375.352
- TSA melting curve raw signal (PfMDH [5]; Temperature 31.5): 3345.279 and 3397.252 and 3379.023
- TSA melting curve raw signal (PfMDH [5]; Temperature 32): 3347.139 and 3398.82 and 3383.605
- TSA melting curve raw signal (PfMDH [5]; Temperature 32.5): 3348.867 and 3401.838 and 3388.573
- TSA melting curve raw signal (PfMDH [5]; Temperature 33): 3351.566 and 3406.371 and 3394.323
- TSA melting curve raw signal (PfMDH [5]; Temperature 33.5): 3355.148 and 3412.286 and 3401.055
- TSA melting curve raw signal (PfMDH [5]; Temperature 34): 3359.354 and 3419.075 and 3408.698
- TSA melting curve raw signal (PfMDH [5]; Temperature 34.5): 3364.345 and 3426.84 and 3417.169
- TSA melting curve raw signal (PfMDH [5]; Temperature 35): 3370.925 and 3434.905 and 3426.749
- TSA melting curve raw signal (PfMDH [5]; Temperature 35.5): 3378.766 and 3443.449 and 3437.428
- TSA melting curve raw signal (PfMDH [5]; Temperature 36): 3388.116 and 3452.416 and 3449.193
- TSA melting curve raw signal (PfMDH [5]; Temperature 36.5): 3399.139 and 3461.927 and 3462.335
- TSA melting curve raw signal (PfMDH [5]; Temperature 37): 3411.581 and 3472.191 and 3477.03
- TSA melting curve raw signal (PfMDH [5]; Temperature 37.5): 3425.633 and 3483.607 and 3493.418
- TSA melting curve raw signal (PfMDH [5]; Temperature 38): 3441.177 and 3496.044 and 3511.6
- TSA melting curve raw signal (PfMDH [5]; Temperature 38.5): 3458.245 and 3509.831 and 3531.909
- TSA melting curve raw signal (PfMDH [5]; Temperature 39): 3477.439 and 3525.778 and 3554.709
- TSA melting curve raw signal (PfMDH [5]; Temperature 39.5): 3498.925 and 3543.752 and 3579.893
- TSA melting curve raw signal (PfMDH [5]; Temperature 40): 3522.761 and 3563.858 and 3607.657
- TSA melting curve raw signal (PfMDH [5]; Temperature 40.5): 3549.068 and 3586.405 and 3638.198
- TSA melting curve raw signal (PfMDH [5]; Temperature 41): 3578.181 and 3611.326 and 3671.73
- TSA melting curve raw signal (PfMDH [5]; Temperature 41.5): 3609.957 and 3638.555 and 3708.036
- TSA melting curve raw signal (PfMDH [5]; Temperature 42): 3645.082 and 3668.877 and 3747.413
- TSA melting curve raw signal (PfMDH [5]; Temperature 42.5): 3683.644 and 3702.365 and 3790.395
- TSA melting curve raw signal (PfMDH [5]; Temperature 43): 3726.411 and 3739.617 and 3837.462
- TSA melting curve raw signal (PfMDH [5]; Temperature 43.5): 3773.558 and 3781.332 and 3888.754
- TSA melting curve raw signal (PfMDH [5]; Temperature 44): 3825.615 and 3827.686 and 3944.903
- TSA melting curve raw signal (PfMDH [5]; Temperature 44.5): 3882.684
- TSA melting curve raw fluorescence signal (PfMDH [5]; Temperature 73.5): 7306.372 and 7609.03 and 7435.601
- TSA melting curve raw fluorescence signal (PfMDH [5]; Temperature 74): 7252.808 and 7555.848 and 7383.062
- TSA melting curve raw fluorescence signal (PfMDH [5]; Temperature 74.5): 7199.861 and 7502.703 and 7330.716
- TSA melting curve raw fluorescence signal (PfMDH [5]; Temperature 75): 7147.275 and 7449.479 and 7278.535
- TSA melting curve raw fluorescence signal (PfMDH [5]; Temperature 75.5): 7094.934 and 7396.013 and 7226.157
- TSA melting curve raw fluorescence signal (PfMDH [5]; Temperature 76): 7042.814 and 7342.543 and 7173.967
- TSA melting curve raw fluorescence signal (PfMDH [5]; Temperature 76.5): 6991.326 and 7288.895 and 7121.791
- TSA melting curve raw fluorescence signal (PfMDH [5]; Temperature 77): 6939.998 and 7235.077 and 7069.532
- TSA melting curve raw fluorescence signal (PfMDH [5]; Temperature 77.5): 6888.609 and 7181.445 and 7017.268
- TSA melting curve raw fluorescence signal (PfMDH [5]; Temperature 78): 6837.679 and 7128.499 and 6965.286
- TSA melting curve raw fluorescence signal (PfMDH [5]; Temperature 78.5): 6786.806 and 7075.655 and 6913.558
- TSA melting curve raw fluorescence signal (PfMDH [5]; Temperature 79): 6735.738 and 7023.249 and 6861.909
- TSA melting curve raw fluorescence signal (PfMDH [5]; Temperature 79.5): 6684.496 and 6971.241 and 6810.337
- TSA melting curve raw fluorescence signal (PfMDH [5]; Temperature 80): 6633.443 and 6919.222 and 6759.175
- TSA melting curve raw fluorescence signal (PfMDH [5]; Temperature 80.5): 6581.916 and 6866.533 and 6708.294
- TSA melting curve raw fluorescence signal (PfMDH [5]; Temperature 81): 6530.578 and 6813.96 and 6657.201
- TSA melting curve raw fluorescence signal (PfMDH [5]; Temperature 81.5): 6479.57 and 6761.335 and 6606.519
- TSA melting curve raw fluorescence signal (PfMDH [5]; Temperature 82): 6428.761 and 6708.745 and 6556.435
- TSA melting curve raw fluorescence signal (PfMDH [5]; Temperature 82.5): 6378.066 and 6656.727 and 6506.333
- TSA melting curve raw fluorescence signal (PfMDH [5]; Temperature 83): 6327.701 and 6605.378 and 6456.007
- TSA melting curve raw fluorescence signal (PfMDH [5]; Temperature 83.5): 6277.373 and 6554.37 and 6405.813
- TSA melting curve raw fluorescence signal (PfMDH [5]; Temperature 84): 6227.075 and 6503.782 and 6355.543
- TSA melting curve raw fluorescence signal (PfMDH [5]; Temperature 84.5): 6177.058 and 6453.083 and 6304.863
- TSA melting curve raw fluorescence signal (PfMDH [5]; Temperature 85): 6127.333 and 6402.172 and 6253.833
- TSA melting curve raw fluorescence signal (PfMDH [5]; Temperature 85.5): 6077.95 and 6351.179 and 6202.991
- TSA melting curve raw fluorescence signal (PfMDH [5]; Temperature 86): 6029.103 and 6299.937 and 6152.723
- TSA melting curve raw fluorescence signal (PfMDH [5]; Temperature 86.5): 5980.562 and 6248.441 and 6102.328
- TSA melting curve raw fluorescence signal (PfMDH [5]; Temperature 87): 5932.235 and 6197.461 and 6052.601
- TSA melting curve raw fluorescence signal (PfMDH [5]; Temperature 87.5): 5883.708 and 6146.127 and 6003.152
- TSA melting curve raw fluorescence signal (PfMDH [5]; Temperature 88): 5834.776 and 6094.257 and 5953.457
- TSA melting curve raw fluorescence signal (PfMDH [5]; Temperature 88.5): 5785.039 and 6042.085 and 5903.221
- TSA melting curve raw fluorescence signal (PfMDH [5]; Temperature 89): 5734.759 and 5989.63 and 5852.78
- TSA melting curve raw fluorescence signal (PfMDH [5]; Temperature 89.5): 5684.264 and 5936.616 and 5801.633
- TSA melting curve raw fluorescence signal (PfMDH [5]; Temperature 90): 5633.721
